Results taken from ChEMBL document CHEMBL5096151, “Phytocannabinoid Pharmacology: Medicinal Properties of Cannabis sativa Constituents Aside from the "Big Two"” (J Nat Prod, 2021).
≈ marks a conversion by molar mass, not a printed value.

Key:
Cannabinoid receptor 1 [1] = molecular target: T1, Cannabinoid receptor 1 (Homo sapiens, UniProt P21554); test: Binding affinity to CB1 (unknown origin) receptor assessed as inhibition constant
Cannabinoid receptor 2 = Cannabinoid receptor 2 (Homo sapiens, UniProt P34972); test: Binding affinity to human CB2 receptor assessed as inhibition constant
[2] = molecular target: Cannabinoid receptor 1 (Mus musculus) (UniProt P47746); test: Agonist activity at CB1 receptor in albino MF1 mouse vas deferens assessed as inhibition of electrically evoked vas deferens contraction by incubated for 13 mins followed by electrical stimulation for 2 mins; type: functional; settings: filed as antagonist, time 15.0 min
[3] = molecular target: Transient receptor potential cation channel subfamily V member 1 (Homo sapiens, UniProt Q8NER1); test: Agonist activity at ionomycin-stimulated TRPV1 (unknown origin) activation assessed as efficacy relative to control
[4] = molecular target: T2, Transient receptor potential cation channel subfamily V member 2 (Homo sapiens, UniProt Q9Y5S1); test: Agonist activity at ionomycin-stimulated TRPV2 (unknown origin) activation
T2 sequence (Q9Y5S1 whole entry): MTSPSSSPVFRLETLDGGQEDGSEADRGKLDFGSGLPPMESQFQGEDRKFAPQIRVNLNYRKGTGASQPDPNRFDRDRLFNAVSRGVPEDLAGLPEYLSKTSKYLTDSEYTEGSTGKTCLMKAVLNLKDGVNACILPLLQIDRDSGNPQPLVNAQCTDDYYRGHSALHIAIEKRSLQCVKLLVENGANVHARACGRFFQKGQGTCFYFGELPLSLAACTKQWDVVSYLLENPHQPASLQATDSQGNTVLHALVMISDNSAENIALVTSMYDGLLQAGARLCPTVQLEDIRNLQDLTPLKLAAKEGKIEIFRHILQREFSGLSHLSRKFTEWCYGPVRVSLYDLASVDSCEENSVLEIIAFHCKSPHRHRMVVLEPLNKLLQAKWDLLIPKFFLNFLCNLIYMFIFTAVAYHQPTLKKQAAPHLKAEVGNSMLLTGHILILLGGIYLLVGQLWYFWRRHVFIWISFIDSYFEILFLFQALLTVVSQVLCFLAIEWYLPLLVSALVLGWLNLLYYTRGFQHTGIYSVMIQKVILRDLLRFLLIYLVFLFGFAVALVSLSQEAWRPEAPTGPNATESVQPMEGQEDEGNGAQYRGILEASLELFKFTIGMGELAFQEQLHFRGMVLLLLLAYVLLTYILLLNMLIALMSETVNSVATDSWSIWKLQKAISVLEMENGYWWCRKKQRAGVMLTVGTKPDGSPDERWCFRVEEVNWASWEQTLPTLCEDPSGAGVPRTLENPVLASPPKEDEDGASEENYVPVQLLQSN

[5] = molecular target: T3, Transient receptor potential cation channel subfamily V member 2 (Homo sapiens) (UniProt Q9Y5S1); test: Agonist activity at ionomycin-stimulated TRPV2 (unknown origin) activation assessed as efficacy relative to control; settings: filed as agonist
T3 sequence (whole entry): T2 sequence (Q9Y5S1 whole entry)

[6] = molecular target: T2, Transient receptor potential cation channel subfamily V member 2; test: Agonist activity at ionomycin-stimulated TRPV2 (unknown origin) channel desensitization in presence of lysophosphatidylcholine
[7] = molecular target: T4, Transient receptor potential cation channel subfamily V member 3 (Homo sapiens, UniProt Q8NET8); test: Agonist activity at ionomycin-stimulated TRPV3 (unknown origin) activation
T4 sequence (Q8NET8 whole entry): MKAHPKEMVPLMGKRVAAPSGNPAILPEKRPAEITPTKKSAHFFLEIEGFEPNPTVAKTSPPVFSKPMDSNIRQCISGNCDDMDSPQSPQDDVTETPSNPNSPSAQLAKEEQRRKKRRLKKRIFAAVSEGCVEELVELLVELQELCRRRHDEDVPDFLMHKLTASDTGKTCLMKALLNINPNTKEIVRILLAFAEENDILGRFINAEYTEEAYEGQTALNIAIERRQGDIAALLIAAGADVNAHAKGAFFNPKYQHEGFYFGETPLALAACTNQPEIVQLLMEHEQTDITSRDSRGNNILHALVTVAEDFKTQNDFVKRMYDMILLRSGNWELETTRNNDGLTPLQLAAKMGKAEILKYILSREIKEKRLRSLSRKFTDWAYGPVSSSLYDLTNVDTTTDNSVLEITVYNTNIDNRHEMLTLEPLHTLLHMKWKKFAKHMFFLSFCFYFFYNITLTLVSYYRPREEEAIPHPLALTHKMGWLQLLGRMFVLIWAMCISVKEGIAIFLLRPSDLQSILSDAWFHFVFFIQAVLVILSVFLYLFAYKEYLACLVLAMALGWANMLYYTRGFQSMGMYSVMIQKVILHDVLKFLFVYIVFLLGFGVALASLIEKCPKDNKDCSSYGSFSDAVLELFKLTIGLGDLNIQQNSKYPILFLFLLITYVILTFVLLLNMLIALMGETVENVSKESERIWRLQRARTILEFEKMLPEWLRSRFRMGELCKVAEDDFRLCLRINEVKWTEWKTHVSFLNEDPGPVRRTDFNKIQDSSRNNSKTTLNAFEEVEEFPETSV

[8] = molecular target: T5, Transient receptor potential cation channel subfamily V member 3 (Homo sapiens) (UniProt Q8NET8); test: Agonist activity at ionomycin-stimulated TRPV3 (unknown origin) activation assessed as efficacy relative to control
T5 sequence (whole entry): T4 sequence (Q8NET8 whole entry)

[9] = molecular target: T4, Transient receptor potential cation channel subfamily V member 3; test: Agonist activity at ionomycin-stimulated TRPV3 (unknown origin) channel desensitization in presence of carvacrol
[10] = molecular target: T6, Transient receptor potential cation channel subfamily V member 4 (Homo sapiens, UniProt Q9HBA0); test: Agonist activity at ionomycin-stimulated TRPV4 (unknown origin) activation
[11] = molecular target: T6, Transient receptor potential cation channel subfamily V member 4; test: Agonist activity at ionomycin-stimulated TRPV4 (unknown origin) activation assessed as efficacy relative to control
[12] = molecular target: T6, Transient receptor potential cation channel subfamily V member 4; test: Agonist activity at ionomycin-stimulated TRPV4 (unknown origin) channel desensitization in presence of 4alphaPDD
[13] = molecular target: T7, Transient receptor potential cation channel subfamily A member 1 (Homo sapiens, UniProt O75762); test: Agonist activity at TRPA1 (unknown origin) activation
[14] = molecular target: T7, Transient receptor potential cation channel subfamily A member 1; test: Agonist activity at TRPA1 (unknown origin) activation assessed as efficacy relative to control; settings: filed as agonist
[15] = molecular target: T7, Transient receptor potential cation channel subfamily A member 1; test: Agonist activity at TRPA1 (unknown origin) channel desensitization in presence of isothiocyanate
Cannabinoid receptor 1 [16] = molecular target: T1, Cannabinoid receptor 1; test: Displacement of [3H]-WIN55212-2 from human CB1 receptor transfected in CHO cell membrane incubated for 90 mins by Liquid scintillation counter analysis; type: cell membranes
Cannabinoid receptor 1 [17] = molecular target: Cannabinoid receptor 1 (Rattus norvegicus, UniProt P20272); test: Displacement of [35S]GTPgammaS from CB1 receptor in rat brain; type: tissue-based
Cannabinoid receptor 1 [18] = molecular target: T1, Cannabinoid receptor 1; test: Displacement of [35S]GTPgammaS from human CB1 receptor expressed in CHO cells; type: cell-based
[19] = Agonist activity at CB2 receptor in albino MF1 mouse vas deferens assessed as inhibition of electrically evoked vas deferens contraction by incubated for 13 mins followed by electrical stimulation for 2 mins
[20] = molecular target: Alpha-2A adrenergic receptor (Homo sapiens) (UniProt P08913); test: Displacement of [35S]GTPgammaS from human alpha2-adreno receptor receptor expressed in CHO cells; type: cell-based
Staphylococcus aureus [21] = test: Antibiofilm activity against methicillin-resistant Staphylococcus aureus USA300 incubated for 24 hrs by crystal violet staining based assay; type: functional
Staphylococcus aureus [22] = test: Antibiofilm activity against methicillin-resistant Staphylococcus aureus USA300 incubated for 24 hrs by CLSI based assay; type: functional
Staphylococcus aureus [23] = test: Antibacterial activity against methicillin-resistant Staphylococcus aureus USA300 infected in mouse assessed as log10 reduction in bacterial load in spleen at 100 mg/kg ,ip measured for 30 mins; type: functional; settings: 0.5 h
Escherichia coli = test: […] activity against Escherichia coli in presence of polymyxin; type: functional

T1 sequence (P21554 whole entry): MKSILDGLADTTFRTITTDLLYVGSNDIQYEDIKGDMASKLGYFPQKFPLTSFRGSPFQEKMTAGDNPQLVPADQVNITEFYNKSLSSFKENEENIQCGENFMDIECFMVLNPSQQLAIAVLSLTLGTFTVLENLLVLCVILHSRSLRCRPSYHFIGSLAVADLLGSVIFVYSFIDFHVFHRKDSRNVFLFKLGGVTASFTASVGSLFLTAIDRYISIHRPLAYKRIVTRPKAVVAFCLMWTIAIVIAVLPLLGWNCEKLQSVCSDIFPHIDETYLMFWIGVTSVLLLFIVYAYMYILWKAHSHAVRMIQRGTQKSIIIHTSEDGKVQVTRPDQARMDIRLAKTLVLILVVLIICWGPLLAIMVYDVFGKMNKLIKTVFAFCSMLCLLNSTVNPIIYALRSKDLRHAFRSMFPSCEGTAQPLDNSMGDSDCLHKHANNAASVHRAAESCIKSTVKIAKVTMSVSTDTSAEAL
T6 sequence (Q9HBA0 whole entry): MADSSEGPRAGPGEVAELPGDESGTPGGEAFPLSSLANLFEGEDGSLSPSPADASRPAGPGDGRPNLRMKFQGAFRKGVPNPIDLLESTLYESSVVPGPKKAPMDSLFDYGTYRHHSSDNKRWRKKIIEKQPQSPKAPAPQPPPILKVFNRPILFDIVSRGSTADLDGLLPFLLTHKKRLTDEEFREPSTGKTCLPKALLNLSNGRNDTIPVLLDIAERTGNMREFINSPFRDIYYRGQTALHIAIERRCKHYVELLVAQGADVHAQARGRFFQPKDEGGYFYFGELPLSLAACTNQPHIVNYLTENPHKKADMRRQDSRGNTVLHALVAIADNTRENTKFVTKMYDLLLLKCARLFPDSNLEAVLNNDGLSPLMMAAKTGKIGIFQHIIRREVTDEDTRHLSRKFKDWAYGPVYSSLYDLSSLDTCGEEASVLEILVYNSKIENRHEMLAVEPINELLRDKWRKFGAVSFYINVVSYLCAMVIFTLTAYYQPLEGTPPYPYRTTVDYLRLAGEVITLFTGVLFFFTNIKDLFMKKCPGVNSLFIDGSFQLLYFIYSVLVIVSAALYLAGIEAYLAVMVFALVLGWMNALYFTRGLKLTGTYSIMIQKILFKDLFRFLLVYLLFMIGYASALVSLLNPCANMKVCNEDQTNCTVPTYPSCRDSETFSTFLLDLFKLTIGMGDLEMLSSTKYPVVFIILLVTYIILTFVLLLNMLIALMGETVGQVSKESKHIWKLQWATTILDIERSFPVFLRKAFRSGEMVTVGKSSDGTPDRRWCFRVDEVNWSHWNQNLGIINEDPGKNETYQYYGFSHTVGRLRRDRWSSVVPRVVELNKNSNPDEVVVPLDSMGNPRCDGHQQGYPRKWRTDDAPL
T7 sequence (O75762 whole entry): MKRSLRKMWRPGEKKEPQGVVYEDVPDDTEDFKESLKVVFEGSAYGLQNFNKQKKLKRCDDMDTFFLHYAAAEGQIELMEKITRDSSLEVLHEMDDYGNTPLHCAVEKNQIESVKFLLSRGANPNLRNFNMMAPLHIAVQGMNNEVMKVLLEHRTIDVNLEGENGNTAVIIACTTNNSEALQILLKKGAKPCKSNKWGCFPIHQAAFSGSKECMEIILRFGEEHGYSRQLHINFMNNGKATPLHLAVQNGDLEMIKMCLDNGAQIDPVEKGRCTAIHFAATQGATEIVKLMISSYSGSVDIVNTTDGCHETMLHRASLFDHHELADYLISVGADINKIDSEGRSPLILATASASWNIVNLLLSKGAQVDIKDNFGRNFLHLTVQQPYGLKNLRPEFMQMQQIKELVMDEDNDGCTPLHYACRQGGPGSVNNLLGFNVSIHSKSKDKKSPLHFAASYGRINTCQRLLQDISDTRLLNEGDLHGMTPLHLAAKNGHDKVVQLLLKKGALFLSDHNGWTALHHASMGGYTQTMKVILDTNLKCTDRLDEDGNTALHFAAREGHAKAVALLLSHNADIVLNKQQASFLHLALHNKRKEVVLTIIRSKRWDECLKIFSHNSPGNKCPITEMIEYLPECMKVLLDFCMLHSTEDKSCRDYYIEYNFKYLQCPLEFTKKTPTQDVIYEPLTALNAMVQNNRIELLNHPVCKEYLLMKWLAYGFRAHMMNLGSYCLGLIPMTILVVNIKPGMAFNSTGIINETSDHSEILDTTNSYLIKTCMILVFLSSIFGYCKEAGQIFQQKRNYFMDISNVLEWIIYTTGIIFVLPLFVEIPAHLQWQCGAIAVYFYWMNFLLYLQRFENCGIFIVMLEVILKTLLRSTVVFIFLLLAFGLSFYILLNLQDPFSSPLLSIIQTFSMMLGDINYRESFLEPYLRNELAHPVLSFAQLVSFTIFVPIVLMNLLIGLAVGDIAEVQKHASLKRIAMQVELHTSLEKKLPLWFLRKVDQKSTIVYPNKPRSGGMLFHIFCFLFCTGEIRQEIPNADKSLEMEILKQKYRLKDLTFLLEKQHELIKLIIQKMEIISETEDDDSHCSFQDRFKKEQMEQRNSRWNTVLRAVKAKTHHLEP
Alpha-2A adrenergic receptor (Homo sapiens), sequence (P08913 whole entry): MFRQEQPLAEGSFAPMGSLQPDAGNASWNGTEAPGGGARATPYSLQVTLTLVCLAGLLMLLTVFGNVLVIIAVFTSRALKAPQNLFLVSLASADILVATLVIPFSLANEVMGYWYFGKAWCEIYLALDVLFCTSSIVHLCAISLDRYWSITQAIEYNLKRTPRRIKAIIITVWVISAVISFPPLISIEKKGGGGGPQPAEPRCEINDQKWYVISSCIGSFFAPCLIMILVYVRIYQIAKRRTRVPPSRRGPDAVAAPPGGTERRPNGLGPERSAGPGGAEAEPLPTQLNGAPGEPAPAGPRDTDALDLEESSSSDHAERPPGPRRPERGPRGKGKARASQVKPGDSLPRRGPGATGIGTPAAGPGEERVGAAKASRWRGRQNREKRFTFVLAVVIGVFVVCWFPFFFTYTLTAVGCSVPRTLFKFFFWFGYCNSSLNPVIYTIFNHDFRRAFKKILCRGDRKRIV
Transient receptor potential cation channel subfamily V member 1, sequence (Q8NER1 whole entry): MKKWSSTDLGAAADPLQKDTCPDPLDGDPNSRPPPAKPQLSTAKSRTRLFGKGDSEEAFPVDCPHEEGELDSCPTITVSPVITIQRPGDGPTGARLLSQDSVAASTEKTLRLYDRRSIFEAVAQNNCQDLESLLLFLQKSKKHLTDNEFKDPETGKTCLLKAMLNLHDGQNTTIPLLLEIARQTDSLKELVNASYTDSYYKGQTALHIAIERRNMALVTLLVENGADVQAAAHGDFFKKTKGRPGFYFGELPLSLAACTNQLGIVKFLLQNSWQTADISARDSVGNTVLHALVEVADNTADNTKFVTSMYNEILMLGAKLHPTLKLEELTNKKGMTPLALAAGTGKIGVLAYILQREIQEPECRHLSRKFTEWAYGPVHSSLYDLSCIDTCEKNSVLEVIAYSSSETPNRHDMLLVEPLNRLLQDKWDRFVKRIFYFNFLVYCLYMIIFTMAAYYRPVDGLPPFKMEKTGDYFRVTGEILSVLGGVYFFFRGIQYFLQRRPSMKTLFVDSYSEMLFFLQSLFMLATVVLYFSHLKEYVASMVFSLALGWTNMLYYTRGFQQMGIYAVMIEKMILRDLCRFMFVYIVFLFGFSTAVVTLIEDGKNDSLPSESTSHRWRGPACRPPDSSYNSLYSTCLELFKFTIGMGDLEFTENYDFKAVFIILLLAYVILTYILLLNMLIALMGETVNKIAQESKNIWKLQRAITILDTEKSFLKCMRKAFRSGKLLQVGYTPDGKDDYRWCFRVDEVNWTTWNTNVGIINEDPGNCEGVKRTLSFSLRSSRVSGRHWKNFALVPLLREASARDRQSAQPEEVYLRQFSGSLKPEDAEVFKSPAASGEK
Cannabinoid receptor 1 (Mus musculus), sequence (P47746 whole entry): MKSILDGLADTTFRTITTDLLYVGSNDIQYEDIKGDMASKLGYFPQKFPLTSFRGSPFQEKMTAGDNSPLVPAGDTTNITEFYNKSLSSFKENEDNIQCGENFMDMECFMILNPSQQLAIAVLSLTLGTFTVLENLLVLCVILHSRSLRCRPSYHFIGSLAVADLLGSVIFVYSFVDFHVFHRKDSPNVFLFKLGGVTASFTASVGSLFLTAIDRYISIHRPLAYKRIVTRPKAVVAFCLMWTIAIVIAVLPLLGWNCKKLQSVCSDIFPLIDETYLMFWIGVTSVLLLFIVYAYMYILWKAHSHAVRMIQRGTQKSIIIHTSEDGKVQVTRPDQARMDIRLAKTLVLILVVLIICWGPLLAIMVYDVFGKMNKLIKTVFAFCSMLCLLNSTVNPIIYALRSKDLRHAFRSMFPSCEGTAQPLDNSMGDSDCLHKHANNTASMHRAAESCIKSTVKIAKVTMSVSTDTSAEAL
Cannabinoid receptor 2, sequence (P34972 whole entry): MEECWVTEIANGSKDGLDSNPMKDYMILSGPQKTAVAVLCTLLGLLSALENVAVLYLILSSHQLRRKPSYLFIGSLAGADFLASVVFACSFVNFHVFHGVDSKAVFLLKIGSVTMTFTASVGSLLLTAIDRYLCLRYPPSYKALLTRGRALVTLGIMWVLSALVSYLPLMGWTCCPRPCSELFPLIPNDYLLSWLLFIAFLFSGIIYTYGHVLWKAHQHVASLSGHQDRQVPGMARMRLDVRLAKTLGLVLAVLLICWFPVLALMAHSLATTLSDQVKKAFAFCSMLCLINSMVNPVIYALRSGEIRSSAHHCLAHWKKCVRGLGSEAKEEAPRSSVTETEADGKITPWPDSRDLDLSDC
Cannabinoid receptor 1 (Rattus norvegicus, UniProt P20272), sequence (P20272 whole entry): as the sequence (P47746 whole entry) above, with D95E counted along it

CCCCCCCc1cc(O)c2c(c1)OC(C)(C)[C@@H]1CCC(C)=C[C@@H]21
Ki (Cannabinoid receptor 1 [1]): 130 nM | Ki (Cannabinoid receptor 2): 6.9 nM

CCCCCc1cc(O)c(C/C=C(\C)CCC=C(C)C)c(O)c1 [CANNABIGEROL]
K [2]: 0.38 µM | Efficacy [3]: 34% | EC50 [4]: 1700 nM | Efficacy [5]: 74% | IC50 [6]: 1500 nM | EC50 [7]: 1000 nM | Efficacy [8]: 18% | IC50 [9]: 66000 nM | EC50 [10]: 5100 nM | Efficacy [11]: 24% | IC50 [12]: 1300 nM | EC50 [13]: 700 nM | Efficacy [14]: 100% | IC50 [15]: 13000 nM | K (Cannabinoid receptor 1 [16]): 1.04 µM | Ki (Cannabinoid receptor 1 [17]): 440 nM | Ki (Cannabinoid receptor 1 [18]): 2600 nM | Ki [19]: 1100 nM | EC5 [20]: 0.002 µM | MIC (Staphylococcus aureus [21]): 0.5 µg/mL (≈ 1.58 µM) | MIC90 (Staphylococcus aureus [21]): 4 µg/mL (≈ 12.6 µM) | MIC90 (Staphylococcus aureus [22]): 4 µg/mL (≈ 12.6 µM) | log(activity) (Staphylococcus aureus [23]): 2.8 | MIC (Escherichia coli): 4 µg/mL
